Results on eight substances are retold here after publication PMC4428071, “Structural basis for epitope masking and strain specificity of a conserved epitope in an intrinsically disordered malaria vaccine candidate” (Scientific Reports, 2015).

The target of one data set is mAb 6D8. In words: SPR binding of synthetic MSP2 peptides to immobilized (captured) mAb 6D8. Also on record: species or system mouse. The settings on record: Biacore T200, mAb 6D8 captured with Mouse Antibody Capture kit, peptides in 20 mM HEPES, 150 mM NaCl, 3 mM EDTA, 0.05 % Tween20, pH 7.4, from concentration dependence of steady-state responses, ± standard deviation of three replicate experiments. As for the experimental part:
To explore the structural basis of epitope masking, it was necessary to first define the minimal epitope of mAb 6D8. […]
(§1) mM scale) using a three-fold equivalent of FMOC-protected amino acid, HCTU and DIPEA in DMF per cycle. Each amino acid coupling was carried out for 30 min at room temperature with continuous shaking. Chain deprotection was carried out in 50% piperidine in DMF for 2 min. Each step in the cycle was terminated with an extensive DMF wash. Peptides were N-terminally acetylated after the last coupling and deprotected, using a three-fold equivalent of acetic anhydride and Dipea in DMF.
The fully assembled peptides were dried under vacuum and cleaved for 3 h in a mixture of TFA:TIPS:water (95:2.5:2.5 v/v). The cleaved material was precipitated in cold diethyl ether overnight at -20 °C. T he insoluble peptide material was spun down at 4,000 rpm for 30 min at 4 °C and the pellet washed twice in cold diethyl ether prior to removal of the organic phase.
The crude peptide mixture was resuspended in 50% acetonitrile/0.1% TFA, filtered and freeze-dried prior to HPLC purification.
2 mg/mL for HPLC purification. […]
linear gradient of 5 to 40% of solvent B (90% acetonitrile / 9.9% water / 0.1% TFA) against solvent A (0.1% TFA in water) over 40 min. […]
mass spectrometry (LC-MS).
Affinity measurements. […]
Where low peptide solubility precluded ITC measurements, affinity was estimated by surface plasmon resonance (SPR) (Biacore T200, GE Healthcare) using a Mouse Antibody Capture kit (GE Healthcare). Synthetic peptides were resuspended in running buffer (20 mM HEPES, 150 mM NaCl, 3 mM EDTA, 0.05 % Tween20, pH 7.4) and injected over the 6D8-captured
Take Ac-AYNMSIRR-NH2 [MSP2_15-22]: binding was characterised by a dissociation constant (Kd) of 87 ± 21 nM. Substance Ac-FINNAYNMSIRRS-NH2 [MSP2_11-23] displayed a Kd of 6 ± 3 nM.

For Ac-NAYNMSIRR-NH2 [MSP2_14-22], the Kd worked out at 6 ± 2 nM. Same read-out and setting: the figure for Ac-AYNMSIRRS-NH2 [MSP2_15-23] is 34 ± 12 nM.

Still in this data set, the particulars now being: at up to 1 μM peptide concentration.
As for Ac-AYNMSIRR-NH2 [MSP2_15-22], the “Binding to immobilized mAb 6D8 (in words)” value is “detectable binding”. On the same count and under the same terms, for “YNMSIRRS [MSP2_16-23, N-acetylated, C-amidated synthetic peptide, residues 16-23 of MSP2]” the value was “abolishes binding”. On the same count and under the same terms, for “NAYNMSIR [MSP2_14-21, N-acetylated, C-amidated synthetic peptide, residues 14-21 of MSP2]” the value was “abolishes binding”.

System in the next data set: not listed separately
In words: Aggregation tendency of peptides on resuspension for HPLC purification. Type of data set: physicochemical. The settings on record: crude peptide resuspended for HPLC purification; had to be resuspended in 10 mM acetic acid at 1 mg/mL. As for the experimental part:
as §1
The fully assembled peptides were dried under vacuum and cleaved for 3 h in a mixture of TFA:TIPS:water (95:2.5:2.5 v/v). The cleaved material was precipitated in cold diethyl ether overnight at -20 °C. […]
MSP2 peptides were purified on a reverse-phase C18 column (Zorbax, 10 x 300 mm) using a linear gradient of 5 to 40% of solvent B (90% acetonitrile / 9.9% water / 0.1% TFA) against solvent A (0.1% TFA in water) over 40 min. The purity of MSP2 peptides was assessed by mass spectrometry (LC-MS).
Affinity measurements. Binding affinity constants of 6D8 antibodies (IgG and scFv) for synthetic peptides and recombinant allelic forms of MSP2 were determined by isothermal titration calorimetry (Microcal ITC-200, GE Healthcare) using either murine mAb 6D8 produced and affinity-purified by the Walter and Eliza Hall Institute antibody facility3 or 6D8 scFv. […]
On to “NNAYNMSI [MSP2_13-20, N-acetylated, C-amidated synthetic peptide, residues 13-20 of MSP2]”, for which the Tendency to aggregate result is on record as “high tendency”.

Turning to “INNAYNMS [MSP2_12-19, N-acetylated, C-amidated synthetic peptide, residues 12-19 of MSP2]”, the Tendency to aggregate entry is reported as “high tendency”.
